Data reported in article PMC9506633, “Design, synthesis, anti-proliferative evaluation, docking, and MD simulations studies of new thiazolidine-2,4-diones targeting VEGFR-2 and apoptosis pathway” (PLoS ONE, 2022).
“Also recorded” adds a separate entry of the source.

Legend:
[1] = Safety assay: cytotoxicity against Vero non-cancer cell line; assay type: cell-based; details: African green monkey, Vero cells (non-cancer cell line); Vero normal cell line
Description: In this work, the safety pattern of the synthesized derivatives 10a, b and 14a-c was also evaluated by testing their in vitro cytotoxicity against Vero non-cancer cell line using the MTT assay protocol.
Section in S1 File.
Mammalian cell lines culture […]
(§1) The cultured media were supplemented with 200 mM L-glutamine, 10.0% fetal bovine serum (Lonza), and 1.0% penicillin/streptomycin. Cells were seeded into 25.0 cm tissue culture flasks and incubated at 37 ◦C in a 5.0% CO 2 incubator for 24 h or till confluency.
(§2) The safety profiles of the tested compounds were checked on one non-cancerous cell line (Vero) to […]
of 100.0 µl of 6×10^4 cell/ml cells was seeded in to each well of a 96-well plate and then the plates were incubated at 37 °C in a humidified 5.0% CO2 incubator for 24 h. At the end of incubation period, the exhausted medium was replaced with 100.0 µl of different concentrations of the designated treatment (prepared in RPMI medium starting from 1.0 mM). The inoculated plates were incubated at the same growth conditions for another 24 h. At the end of incubation, cellular viability was assessed using MTS assay kit (Promega) according to the manual instruction. […]

HepG2 = assay: MTT anti-proliferative assay, HepG2; assay type: cell-based; details: for IC50: Homo sapiens, HepG2 cell line, MTT; for Selectivity index (HepG2): SI = Cytotoxicity against Vero cells / Cytotoxicity against HepG2 cell line
Description: (§3) The cytotoxicity effects of the synthesized candidates were evaluated against A549, Caco-2, HepG2, and MDA-mb-231 cell lines. MTT assay method was applied using the sub-IC50 concentrations of each compound as the treatment dose. Doxorubicin was used as a reference molecule. […] Also, it was noticed that Caco-2 was the most sensitive cell line.
(§4) The synthesized compounds were evaluated for their anti-proliferative activities against A549, Caco-2, HepG2, and MDA-mb-231 cell lines using the MTT assay protocol as described in S.1.2. Section in S1 File.
(§5) Mammalian cell lines culture
as §1, with “CaCo-2, and A549 cell lines were cultured on DMEM media, meanwhile MDA-MB-231 and hepG-2 cell line were cultured on RBMI media. The” for “The”
as §2
(§6) of 100.0 µl of 6×10^4 cell/ml cells was seeded in to each well of a 96-well plate and then the plates were incubated at 37 °C in a humidified 5.0% CO2 incubator for 24 h. At the end of incubation period, the exhausted medium was replaced with 100.0 µl of different concentrations of the designated treatment (prepared in RPMI medium starting from 1.0 mM). The inoculated plates were incubated at the same growth conditions for another 24 h. At the end of incubation, cellular viability was assessed using MTS assay kit (Promega) according to the manual instruction.
(§7) S.1.2. In-vitro anticancer activity
(§8) Anticancer activities of the tested compounds against CaCo-2, MDA-MB-231, and hepG-2 cell lines were quantified using MTS assay kit (Promega) as described by the Manufacturer. […]

A549 = assay: MTT anti-proliferative assay, A549; assay type: cell-based; details: for IC50: Homo sapiens, A549 cell line, MTT; for Selectivity index (A549): SI = Cytotoxicity against Vero cells / Cytotoxicity against A549 cell line
Description: as §3, §4, §5
as §1, with “CaCo-2, and A549 cell lines were cultured on DMEM media, meanwhile MDA-MB-231 and hepG-2 cell line were cultured on RBMI media. The” for “The”
as §2, §6, §7, §8

MDA-mb-231 = assay: MTT anti-proliferative assay, MDA-mb-231; assay type: cell-based; details: for IC50: Homo sapiens, MDA-mb-231 cell line, MTT; for Selectivity index (MDA-MB-231): SI = Cytotoxicity against Vero cells / Cytotoxicity against MDA-MB-231 cell line
Description: as §3, §4, §5
as §1, with “CaCo-2, and A549 cell lines were cultured on DMEM media, meanwhile MDA-MB-231 and hepG-2 cell line were cultured on RBMI media. The” for “The”
as §2, §6, §7, §8

Caco-2 = assay: MTT anti-proliferative assay, Caco-2; assay type: cell-based; details: Homo sapiens; Caco-2 cell line, MTT; read-out: Anti-proliferative activity (IC50 μM) Caco2
Description: as §3, §4, §5
as §1, with “CaCo-2, and A549 cell lines were cultured on DMEM media, meanwhile MDA-MB-231 and hepG-2 cell line were cultured on RBMI media. The” for “The”
as §2, §6, §7, §8

[2] = MTT anti-proliferative assay, Caco-2; assay type: cell-based; details: African green monkey (Vero); human (Caco-2); SI = Cytotoxicity against Vero cells / Cytotoxicity against Caco-2 cell line; read-out: Selectivity index (Caco-2)
Description: as §3, §4, §5
as §1, with “CaCo-2, and A549 cell lines were cultured on DMEM media, meanwhile MDA-MB-231 and hepG-2 cell line were cultured on RBMI media. The” for “The”
as §2, §6, §7, §8

VEGFR-2 = target: T1, VEGFR-2 (Homo sapiens, UniProt P35968); assay: In vitro VEGFR-2 inhibition (VEGFR-2 ELISA kit); assay type: biochemical; details: for IC50: ELISA kit; for HillSlope (best-fit value) / LogIC50 (best-fit value): dose-response curve fit, raw data S.5
T1 construct: purchased
Description: Compounds 10a, b and 14a-c were evaluated for their VEGFR-2inhibitory activity.
VEGFR-2 ELISA kit was used in this test as described in S.1.3. Section in S1 File. […]
S.1.3. In vitro VEGFR-2 kinase assay
All the synthesized compounds were tested for its inhibitory activity against VEGFR-2. Human VEGFR-2 ELISA kit (Enzyme-Linked Immunosorbent Assay) was utilized in this test. At first, specific antibody for VEGFR-2 was seeded on a 96-well plate and 100 μL of the standard solution or the tested compound was added, all were incubated at room temperature for 2.5 h. Then washed, 100 μL of the prepared biotin antibody was added, then incubated at room temperature for additional 1 h. and washed. Then, 100 μL of streptavidin solution was added and incubated for 45 min. at room temperature. Washed again, 100 μL of TMB Substrate reagent was added and incubated for 30 min. at room temperature. 50 μL of the stop solution was added, then read at 450 nm immediately. The standard curve was drawn, concentrations on the X-axis and the absorbance

TGF = assay: RT-qPCR gene expression in Caco-2, TGF; assay type: cell-based; details: Caco-2, 1.5 μM, compared to control cells
Text: (§9) The molecular anticancer mode of action of 14a was investigated by screening their ability to control the gene expression levels of Bcl2, Bcl-xl, TGF and Survivin genes as reported in S.1.6. Section in S1 File.
(§10) S.1.4. Selectivity index (SI) […]
(§11) S.1.6. Gene expression pattern alt ernation of cancer cell after 1 4a treatment The molecular anticancer mode of action of 14a was investigated by screening their ability to affect the gene expression levels of Bcl2, Bcl -xl, TGF and Survivin genes using specific forward and reverse primers and RTq-PCR technique (Table 1) in CaCo-2 cells (chosen as the most sensitive cancer cell line). After cellular treatment, CaCo-2 cell line was cultured into 12 well plates (6×10^3 cell/ml) for 24 h. with the sub-IC50 concentration of 14a. After treatment, total RNA extraction was performed using RNA extraction kit (Qiagen, Germany). Then, 1 ug of the obtained RNA was used to synthesiz cDNA using cDNA synthesis kit (Promega Corp., Madison, WI) as recommended by the manufacturer. Simultaneously, GAPDH forward and reverse primers (Table 1) were used to amplify the house keeping gene as internal control for standardization of PCR products. The RTq-PCR was done using SYBR Green dye (QuantiTect SYBR Green PCR Kits) and Light Cycler fluorimeter (Bio-RAD S1000 Tm thermal cycler). […]

Survivin = assay: RT-qPCR gene expression in Caco-2, Survivin; assay type: cell-based; details: Caco-2, 1.5 μM, compared to control cells
Text: as §9, §10, §11

Caco-2 cells = assay: In vitro scratch (wound healing, migration) assay; assay type: cell-based; details: Caco-2, 1 μM
Description: The in vitro scratch assay[38] was used to assess the prospective of compound 14a to inhibit the ability of Caco-2 cells to migrate and heal. The basic idea behind this test is to create a scratch in a cancer cell line monolayer, measure the diameter at the start time and at regular intervals to investigate the potential of the cancer cell to migrate and heal. The findings of the treated cell line are then compared to the untreated cell line.
Cell Migration assay was conducted according to the reported protocol as described [59]in S.1.5. Section in S1 File.
S.1.4. Selectivity index (SI)
The selectivity index values of the tested compounds on cancer cells were calculated as described by Koch et al., with slight modifications; SI=IC50nc/IC50cc, where IC50nc: the IC50 value of the tested compound on normal cells and IC 50cc: IC50 of the tested compound on cancer cell line .
S.1.5. Wound healing assay (Migration assay)
CaCo-2 cells were grown to 95.0% confluency in a complete DMEM medium and then the wounds were formed using a plastic tip. […] After incubation at 37°C and 5.0% CO2 for 24h, the cells were washed with PBS and the wounds distance was determined as the scratch width of the treated and untreated groups using […]
S.1.6. […] The RTq-PCR was done using SYBR Green dye (QuantiTect SYBR Green PCR Kits) and Light Cycler fluorimeter (Bio-RAD S1000 Tm thermal cycler). […]

Bcl-xl = assay: RT-qPCR gene expression in Caco-2, Bcl-xl; assay type: cell-based; details: Caco-2, 1.5 μM, compared to control cells
Text: as §9, §10, §11

Bcl-2 = assay: RT-qPCR gene expression in Caco-2, Bcl-2; assay type: cell-based; details: Caco-2, 1.5 μM, compared to control cells
Text: as §9, §10, §11

T1 sequence (P35968 20-1356): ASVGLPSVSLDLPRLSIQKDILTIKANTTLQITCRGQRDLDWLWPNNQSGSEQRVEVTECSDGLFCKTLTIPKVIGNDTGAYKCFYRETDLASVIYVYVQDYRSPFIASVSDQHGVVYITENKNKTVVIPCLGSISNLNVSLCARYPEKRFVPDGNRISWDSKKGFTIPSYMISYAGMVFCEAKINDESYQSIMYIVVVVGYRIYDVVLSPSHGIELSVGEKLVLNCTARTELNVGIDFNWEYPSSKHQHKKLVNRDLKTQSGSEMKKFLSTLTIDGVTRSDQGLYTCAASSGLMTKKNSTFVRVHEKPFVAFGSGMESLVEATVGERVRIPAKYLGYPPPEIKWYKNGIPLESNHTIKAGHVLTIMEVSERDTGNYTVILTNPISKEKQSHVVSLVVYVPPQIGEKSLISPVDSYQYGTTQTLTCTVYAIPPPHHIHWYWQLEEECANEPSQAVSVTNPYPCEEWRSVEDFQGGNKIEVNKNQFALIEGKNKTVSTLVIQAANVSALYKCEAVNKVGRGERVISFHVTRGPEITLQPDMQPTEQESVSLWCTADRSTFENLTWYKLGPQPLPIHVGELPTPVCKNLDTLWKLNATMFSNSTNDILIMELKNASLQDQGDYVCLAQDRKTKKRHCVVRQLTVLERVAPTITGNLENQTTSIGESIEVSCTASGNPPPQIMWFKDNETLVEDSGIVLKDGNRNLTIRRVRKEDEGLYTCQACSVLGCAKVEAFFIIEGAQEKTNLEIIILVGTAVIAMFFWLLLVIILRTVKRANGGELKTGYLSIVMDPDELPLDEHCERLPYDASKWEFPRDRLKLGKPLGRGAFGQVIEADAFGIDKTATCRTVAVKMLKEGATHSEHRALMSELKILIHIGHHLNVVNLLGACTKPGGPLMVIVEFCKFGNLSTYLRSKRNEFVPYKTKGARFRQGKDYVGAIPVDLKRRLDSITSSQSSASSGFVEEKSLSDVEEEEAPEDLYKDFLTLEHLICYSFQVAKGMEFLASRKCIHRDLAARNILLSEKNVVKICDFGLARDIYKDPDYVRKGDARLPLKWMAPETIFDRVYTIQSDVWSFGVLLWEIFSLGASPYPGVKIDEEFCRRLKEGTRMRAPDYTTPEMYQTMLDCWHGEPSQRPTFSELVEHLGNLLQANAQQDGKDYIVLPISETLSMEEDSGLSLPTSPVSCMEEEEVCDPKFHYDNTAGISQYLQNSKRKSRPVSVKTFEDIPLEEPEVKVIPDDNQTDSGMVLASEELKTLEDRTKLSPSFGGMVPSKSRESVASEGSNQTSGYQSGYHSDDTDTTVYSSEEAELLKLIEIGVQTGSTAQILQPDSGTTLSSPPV

| SMILES | IC50 at 24 h [1] [µM] | IC50 (HepG2) [µM] | Selectivity index (HepG2) (HepG2) | IC50 (A549) [µM] | Selectivity index (A549) (A549) | IC50 (MDA-mb-231) [µM] | Selectivity index (MDA-MB-231) (MDA-mb-231) | IC50 (Caco-2) [µM] | selectivity ratio [2] | IC50 (VEGFR-2) [µM] | HillSlope (best-fit value) (VEGFR-2) | LogIC50 (best-fit value) (VEGFR-2) | TGF gene expression level (TGF) | Survivin gene expression level (Survivin) | Inhibition of migration and healing of Caco-2 cells (Caco-2 cells; 24 h) | Width of the scratch (Caco-2 cells; after 24 h, control scratch width at 0 hr 0.356 mm) [mm] | Bcl-xl gene expression level (Bcl-xl) | Bcl-2 gene expression level (Bcl-2) |
| --- | --- | --- | --- | --- | --- | --- | --- | --- | --- | --- | --- | --- | --- | --- | --- | --- | --- | --- |
| COc1ccc2[nH]c(=O)c(/C=C3\SC(=O)N(CC(=O)Nc4ccc(Cl)cc4)C3=O)cc2c1 [Compound 10a, (Z)-N-(4-Chlorophenyl) -2-(5-((6-methoxy-2-oxo-1,2-dihydroquinolin-3-yl)methylene) -2,4-dioxothiazolidin-3-yl)acetamide] | 194 ± 18.2 | 174 ± 16.3 | 1.118 | 85 ± 7.5 | 2.280 | 132 ± 5.2 | 1.460 | 82.5 ± 7.2 | 2.35 | 0.0652 ± 0.0055 | -0.4587 | 1.814 Log (nM) | – | – | – | – | – | – |
| COc1ccc2[nH]c(=O)c(/C=C3\SC(=O)N(CC(=O)Nc4cc(Cl)ccc4Cl)C3=O)cc2c1 [Compound 10b, (Z)-N-(2,5-Dichlorophenyl)-2-(5-((6-methoxy-2-oxo-1,2-dihydroquinolin-3-yl)methylene)-2,4-dioxothiazolidin-3-yl)acetamide] | 1580 ± 155 | 71 ± 6.4 | 22.250 | 92.5 ± 8.6 | 17.080 | 31.5 ± 2.5 | 51.333 | 62.5 ± 5.4 | 25.3 | 0.165 ± 0.0153 | -0.3514 | 2.216 Log (nM) | – | – | – | – | – | – |
| O=C(CN1C(=O)SC(=C2C(=O)Nc3ccccc32)C1=O)Nc1ccc(Cl)cc1 [Compound 14a, N-(4-Chlorophenyl)-2-(2,4-dioxo-5-(2-oxoindolin-3-ylidene)thiazolidin-3-yl)acetamide] | 290 ± 28.3 | 31.5 ± 2.5 | 9.196 | 170 ± 14.5 | 1.704 | 84 ± 7.3 | 3.375 | 1.5 ± 0.08 | 212 | 0.0915 ± 0.0082 | -0.4675 | 1.961 Log (nM) | significant reduction; also recorded: significant down-regulation; also recorded: downregulate | significant reduction; also recorded: significant down-regulation; also recorded: downregulate | inhibit the migration and healing of Caco-2 cells in a significant manner; also recorded: significantly inhibited the ability of cancer cells to migrate and heal | 0.293 | non-detectable change | significant reduction; also recorded: significant down-regulation; also recorded: downregulate |
